From ChEMBL document CHEMBL1201862, “PubChem BioAssay data set” (2004)
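A five-concentration, 48-hour dose response in 96-well plates underlies each endpoint, interpolated linearly between surrounding concentrations. Here, GI50 denotes the concentration required for 50% inhibition of growth.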 Calls of active or inactive are those of the source. Cut-off read from the data, not from the text of the source: active = GI50 up to about 1.1 µM and inactive = higher.

Columns and labels:
Assay in all cases: inhibition of tumour cell growth, NCI panel, 48 h
[1] = test system: HL-60
[2] = test system: Malme-3M
[3] = test system: SNB-75
[4] = test system: NCI-H23
[5] = test system: LXFL 529
[6] = test system: UO-31
[7] = test system: DMS-114
[8] = test system: RPMI-8226
[9] = test system: SK-OV-3
[10] = test system: NCI-H460
[11] = test system: M19-MEL
[12] = test system: SNB-78
[13] = test system: SW-620
[14] = test system: HCC 2998
[15] = test system: SNB-19
[16] = test system: TK-10
[17] = test system: OVCAR-4
[18] = test system: CAKI-1

Measured: GI50

Cc1nc2c(o1)/C(=N\c1ccccc1)c1nc(C)oc1/C2=N/c1ccccc1
inactive: [1] 49.9 µM | [2] 19.4 µM | [3] 11.7 µM | [4] 25.9 µM | [5] 20.8 µM | [6] 17.2 µM | [7] 25.5 µM | [8] 29.6 µM | [9] 20.2 µM | [10] 29.3 µM | [11] 21.6 µM | [12] > 100 µM | [13] 34.4 µM | [14] 32.4 µM | [15] 21.2 µM | [16] 32.7 µM

COc1ccc(-c2cc(O)c3cc(OC)ccc3n2)cc1
inactive: [1] > 100 µM | [2] > 100 µM | [3] 92.9 µM | [4] > 100 µM | [5] > 100 µM | [6] > 100 µM | [7] > 100 µM | [8] > 100 µM | [9] > 100 µM | [11] > 100 µM | [12] > 100 µM | [13] > 100 µM | [14] 5.74 µM | [17] > 100 µM | [15] > 100 µM | [16] > 100 µM

CS(=O)(=O)c1nc(N)nc2nc[nH]c12
inactive: [1] > 100 µM | [4] > 100 µM | [5] > 100 µM | [6] > 100 µM | [7] > 100 µM | [8] > 100 µM | [9] > 100 µM | [10] > 100 µM | [11] > 100 µM | [12] > 100 µM | [13] > 100 µM | [14] > 100 µM | [17] > 100 µM | [18] > 100 µM | [15] > 100 µM | [16] > 100 µM

COC(=O)C(=O)C(C(=O)C(=O)Nc1ccc([N+](=O)[O-])cc1C#N)c1nc2ccc([N+](=O)[O-])cc2nc1O (stereo unspecified)
inactive: [1] > 100 µM | [2] > 100 µM | [3] > 100 µM | [5] > 100 µM | [6] > 100 µM | [7] > 100 µM | [8] > 100 µM | [9] > 100 µM | [10] > 100 µM | [11] > 100 µM | [12] > 100 µM | [13] > 100 µM | [17] > 100 µM | [18] 94.6 µM | [15] > 100 µM | [16] > 100 µM

O=C1C[C@@H]2[C@@H](c3ccccc3)[C@@H]3C(=O)c4ccccc4NC(=O)[C@H]3[C@]2(O)c2ccccc2N1
inactive: [1] > 100 µM | [2] > 100 µM | [3] > 100 µM | [4] > 100 µM | [5] > 100 µM | [6] > 100 µM | [7] > 100 µM | [8] > 100 µM | [10] > 100 µM | [11] > 100 µM | [12] > 100 µM | [13] > 100 µM | [17] > 100 µM | [15] > 100 µM | [16] > 100 µM

Cn1c(=O)c2ccc(-c3ccc(Br)cc3)nc2n(C)c1=O
inactive: [1] > 100 µM | [2] > 100 µM | [3] 29.6 µM | [4] 51.2 µM | [5] > 100 µM | [6] > 100 µM | [7] > 100 µM | [8] > 100 µM | [9] > 100 µM | [10] > 100 µM | [11] > 100 µM | [12] 85.3 µM | [13] > 100 µM | [14] > 100 µM | [17] > 100 µM | [15] > 100 µM | [16] 49.5 µM

Nc1nc(-c2ccco2)cc(-c2ccc(CO)o2)n1
inactive: [1] > 100 µM | [2] > 100 µM | [3] 72.9 µM | [4] > 100 µM | [5] > 100 µM | [6] 60.3 µM | [7] > 100 µM | [8] 41.4 µM | [10] > 100 µM | [11] > 100 µM | [12] > 100 µM | [13] > 100 µM | [17] > 100 µM | [15] 65.5 µM | [16] > 100 µM
